Source: PubChem BioAssay (NCI)
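Cells were grown in 96-well plates and exposed to each compound for 48 hours at five concentrations; endpoints were interpolated linearly between bracketing concentrations, or set to the highest concentration if not reached. Here, GI50 denotes the concentration required for 50% inhibition of growth. TGI: total growth inhibition.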

What was measured:
Experiment in all cases: DTP human tumour cell line panel, 48 h
A549 NSCLC = tested on: A549 NSCLC
K-562 leukemia = tested on: K-562 leukemia
SR leukemia = tested on: SR leukemia
TK-10 renal = tested on: TK-10 renal
DU-145 prostate = tested on: DU-145 prostate
HS 578T breast = tested on: HS 578T breast
HCT-15 colon = tested on: HCT-15 colon
SK-MEL-5 melanoma = tested on: SK-MEL-5 melanoma
NCI-H226 lung = tested on: NCI-H226 lung
SN12C renal = tested on: SN12C renal
PC-3 prostate = tested on: PC-3 prostate
ACHN renal = tested on: ACHN renal
NCI/ADR-RES ovarian = tested on: NCI/ADR-RES ovarian
HOP-62 NSCLC = tested on: HOP-62 NSCLC
COLO 205 colon = tested on: COLO 205 colon
OVCAR-3 ovarian = tested on: OVCAR-3 ovarian
UACC-257 melanoma = tested on: UACC-257 melanoma
SF-539 CNS = tested on: SF-539 CNS
BT-549 breast = tested on: BT-549 breast
SK-OV-3 ovarian = tested on: SK-OV-3 ovarian
MALME-3M melanoma = tested on: MALME-3M melanoma
HT29 colon = tested on: HT29 colon
CAKI-1 renal = tested on: CAKI-1 renal
786-0 renal = tested on: 786-0 renal
HCT-116 colon = tested on: HCT-116 colon
SF-295 CNS = tested on: SF-295 CNS
M14 melanoma = tested on: M14 melanoma
MCF7 breast = tested on: MCF7 breast
CCRF-CEM leukemia = tested on: CCRF-CEM leukemia
KM12 colon = tested on: KM12 colon
RXF 393 renal = tested on: RXF 393 renal
SNB-75 CNS = tested on: SNB-75 CNS
SK-MEL-2 melanoma = tested on: SK-MEL-2 melanoma
HL-60(TB) leukemia = tested on: HL-60(TB) leukemia
NCI-H23 lung = tested on: NCI-H23 lung
SNB-19 CNS = tested on: SNB-19 CNS
SW-620 colon = tested on: SW-620 colon
MDA-MB-231 breast = tested on: MDA-MB-231 breast
OVCAR-8 ovarian = tested on: OVCAR-8 ovarian
UO-31 renal = tested on: UO-31 renal
SK-MEL-28 melanoma = tested on: SK-MEL-28 melanoma
IGROV1 ovarian = tested on: IGROV1 ovarian
LOX IMVI melanoma = tested on: LOX IMVI melanoma
T-47D breast = tested on: T-47D breast
SF-268 CNS = tested on: SF-268 CNS
MOLT-4 leukemia = tested on: MOLT-4 leukemia
EKVX NSCLC = tested on: EKVX NSCLC
NCI-H460 lung = tested on: NCI-H460 lung
OVCAR-5 ovarian = tested on: OVCAR-5 ovarian
A498 renal = tested on: A498 renal
UACC-62 melanoma = tested on: UACC-62 melanoma
OVCAR-4 ovarian = tested on: OVCAR-4 ovarian
HOP-92 NSCLC = tested on: HOP-92 NSCLC
RPMI-8226 leukemia = tested on: RPMI-8226 leukemia
MDA-MB-435 = tested on: MDA-MB-435
U251 CNS = tested on: U251 CNS

Compound `O=[N+]([O-])c1ccc(C(Br)c2ccc([N+](=O)[O-])cc2)cc1` has a GI50 (A549 NSCLC) of 11.1 µM, a TGI (A549 NSCLC) of 26.5 µM and a GI50 (K-562 leukemia) of 3.12 µM. It also gave a TGI (K-562 leukemia) of 10.5 µM, a GI50 (SR leukemia) of 2.36 µM and a TGI (SR leukemia) of 6.73 µM. It also gave a GI50 (TK-10 renal) of 3.01 µM, a TGI (TK-10 renal) of 10.4 µM and a GI50 (DU-145 prostate) of 15.1 µM. It also gave a TGI (DU-145 prostate) of 28.6 µM, a GI50 (HS 578T breast) of 17.9 µM and a TGI (HS 578T breast) of 53.7 µM. For the same compound, the GI50 (HCT-15 colon) was 1.67 µM, the TGI (HCT-15 colon) was 5.26 µM and the GI50 (SK-MEL-5 melanoma) was 2.04 µM. The TGI (SK-MEL-5 melanoma) was 4.9 µM, the GI50 (NCI-H226 lung) was 5.29 µM and the TGI (NCI-H226 lung) was 23.7 µM. The GI50 (SN12C renal) was 3.07 µM, the TGI (SN12C renal) was 11 µM and the GI50 (PC-3 prostate) was 3.34 µM. For the same compound, the TGI (PC-3 prostate) was 13.5 µM, the GI50 (ACHN renal) was 11.6 µM and the TGI (ACHN renal) was 26.5 µM. The GI50 (NCI/ADR-RES ovarian) was 2.37 µM, the TGI (NCI/ADR-RES ovarian) was 6.82 µM and the GI50 (HOP-62 NSCLC) was 12.5 µM. For the same compound, the TGI (HOP-62 NSCLC) was 25.9 µM, the GI50 (COLO 205 colon) was 11.1 µM and the TGI (COLO 205 colon) was 24 µM. It also gave a GI50 (OVCAR-3 ovarian) of 11.7 µM, a TGI (OVCAR-3 ovarian) of 24.3 µM and a GI50 (UACC-257 melanoma) of 10.2 µM. It also gave a TGI (UACC-257 melanoma) of 24.1 µM, a GI50 (SF-539 CNS) of 15.1 µM and a TGI (SF-539 CNS) of 31.1 µM. The GI50 (BT-549 breast) was 15.8 µM, the TGI (BT-549 breast) was 30.7 µM and the GI50 (SK-OV-3 ovarian) was 11 µM. It also gave a TGI (SK-OV-3 ovarian) of 23 µM, a GI50 (MALME-3M melanoma) of 2.06 µM and a TGI (MALME-3M melanoma) of 5.12 µM. The GI50 (HT29 colon) was 1.63 µM, the TGI (HT29 colon) was 5.2 µM and the GI50 (CAKI-1 renal) was 2.11 µM. The TGI (CAKI-1 renal) was 4.91 µM, the GI50 (786-0 renal) was 9.88 µM and the TGI (786-0 renal) was 26 µM. It also gave a GI50 (HCT-116 colon) of 1.48 µM, a TGI (HCT-116 colon) of 4.06 µM and a GI50 (SF-295 CNS) of 13.9 µM. For the same compound, the TGI (SF-295 CNS) was 28.9 µM, the GI50 (M14 melanoma) was 1.91 µM and the TGI (M14 melanoma) was 4.2 µM. The GI50 (MCF7 breast) was 4.07 µM, the TGI (MCF7 breast) was 18.1 µM and the GI50 (CCRF-CEM leukemia) was 2.11 µM. The TGI (CCRF-CEM leukemia) was 5.98 µM, the GI50 (KM12 colon) was 5.09 µM and the TGI (KM12 colon) was 18.4 µM. It also gave a GI50 (RXF 393 renal) of 12.9 µM, a TGI (RXF 393 renal) of 26.1 µM and a GI50 (SNB-75 CNS) of 12.2 µM. It also gave a TGI (SNB-75 CNS) of 24.7 µM, a GI50 (SK-MEL-2 melanoma) of 4 µM and a TGI (SK-MEL-2 melanoma) of 17.2 µM. For the same compound, the GI50 (HL-60(TB) leukemia) was 8.58 µM, the TGI (HL-60(TB) leukemia) was 25.6 µM and the GI50 (NCI-H23 lung) was 2.12 µM. For the same compound, the TGI (NCI-H23 lung) was 7.14 µM, the GI50 (SNB-19 CNS) was 15 µM and the TGI (SNB-19 CNS) was 33.2 µM. For the same compound, the GI50 (SW-620 colon) was 2.89 µM, the TGI (SW-620 colon) was 12 µM and the GI50 (MDA-MB-231 breast) was 9.54 µM. For the same compound, the TGI (MDA-MB-231 breast) was 25.2 µM, the GI50 (OVCAR-8 ovarian) was 2.72 µM and the TGI (OVCAR-8 ovarian) was 8.4 µM. The GI50 (UO-31 renal) was 1.68 µM, the TGI (UO-31 renal) was 5.34 µM and the GI50 (SK-MEL-28 melanoma) was 16.6 µM. For the same compound, the TGI (SK-MEL-28 melanoma) was 30.5 µM, the GI50 (IGROV1 ovarian) was 1.37 µM and the TGI (IGROV1 ovarian) was 3.17 µM. It also gave a GI50 (LOX IMVI melanoma) of 1.65 µM, a TGI (LOX IMVI melanoma) of 3.23 µM and a GI50 (T-47D breast) of 1.69 µM. The TGI (T-47D breast) was 5.13 µM, the GI50 (SF-268 CNS) was 4.35 µM and the TGI (SF-268 CNS) was 17.7 µM. It also gave a GI50 (MOLT-4 leukemia) of 2.56 µM, a TGI (MOLT-4 leukemia) of 6.15 µM and a GI50 (EKVX NSCLC) of 14 µM. It also gave a TGI (EKVX NSCLC) of 28.7 µM, a GI50 (NCI-H460 lung) of 16.3 µM and a TGI (NCI-H460 lung) of 40.2 µM. The GI50 (OVCAR-5 ovarian) was 17 µM, the TGI (OVCAR-5 ovarian) was 34.3 µM and the GI50 (A498 renal) was 6.06 µM. The TGI (A498 renal) was 23.5 µM, the GI50 (UACC-62 melanoma) was 5.11 µM and the TGI (UACC-62 melanoma) was 22 µM. For the same compound, the GI50 (OVCAR-4 ovarian) was 2.02 µM, the TGI (OVCAR-4 ovarian) was 4.85 µM and the GI50 (HOP-92 NSCLC) was 2.01 µM. It also gave a TGI (HOP-92 NSCLC) of 4.99 µM, a GI50 (RPMI-8226 leukemia) of 2.35 µM and a TGI (RPMI-8226 leukemia) of 6.75 µM. The GI50 (MDA-MB-435) was 3.44 µM, the TGI (MDA-MB-435) was 13.5 µM and the GI50 (U251 CNS) was 2.31 µM. It also gave a TGI (U251 CNS) of 6.16 µM.
